test: Inhibition of HCV NS5B polymerase by RdRp-catalyzed elongation assay; design: species or system Hepacivirus hominis

Row | IC50 [µM] | SMILES
1 | 43 | CCc1ccc(/C=C2\SC(N[C@H](C(=O)O)c3ccc(O)cc3)=NC2=O)o1 (stereo in doubt)
2 | 8.5 | CCc1ccc(/C=C2\SC(N[C@H](CC(=O)O)c3ccc(Cl)cc3Cl)=NC2=O)o1 (stereo in doubt)
3 | 50 | CCc1ccc(/C=C2\SC(N[C@@H](C(=O)O)c3ccc(F)cc3)=NC2=O)o1 (stereo in doubt) [VALEANT]
4 | 11 | CCc1ccc(/C=C2\SC(NC(C(=O)O)c3ccc(C)cc3)=NC2=O)o1 (stereo not drawn)
5 | 7.6 | CCc1ccc(/C=C2\SC(NC(C(=O)O)c3ccc(Cl)cc3Cl)=NC2=O)o1 (stereo not drawn)
6 | 21 | CCc1ccc(/C=C2\SC(NC(C(=O)O)c3ccc(C(F)(F)F)cc3)=NC2=O)o1 (stereo not drawn)
7 | 68 | CCc1ccc(/C=C2\SC(NC(Cc3ccccc3)C(=O)O)=NC2=O)o1 (stereo not drawn)
8 | 6 | CCc1ccc(/C=C2\SC(NC(C(=O)O)c3ccc(Br)cc3)=NC2=O)o1 (stereo not drawn)
9 | 12 | CCc1ccc(/C=C2\SC(NC(C(=O)O)c3ccc(C)cc3C)=NC2=O)o1 (stereo not drawn)
10 | 13 | CCc1ccc(/C=C2\SC(N[C@@H](CC(=O)O)c3ccc(F)cc3)=NC2=O)o1 (stereo in doubt)
11 | 3 | CCc1ccc(/C=C2\SC(N[C@H](C(=O)O)c3ccc(F)cc3)=NC2=O)o1 (stereo in doubt)
12 | 27 | CCc1ccc(/C=C2\SC(N[C@H](CC(=O)O)c3ccc(C)cc3)=NC2=O)o1 (stereo in doubt)
13 | 5.5 | CCc1ccc(/C=C2\SC(NC(C(=O)NO)c3ccc(Cl)cc3Cl)=NC2=O)o1 (stereo not drawn)
14 | 55 | CCc1ccc(/C=C2\SC(N[C@H](C(=O)O)c3ccccc3)=NC2=O)o1 (stereo in doubt)
15 | 9 | CCc1ccc(/C=C2\SC(N[C@@H](CC(=O)O)c3ccc(Cl)cc3Cl)=NC2=O)o1 (stereo in doubt)
16 | > 100 | CCc1ccc(/C=C2\SC(NC(C(=O)O)C3(C)CCCC3)=NC2=O)o1 (stereo not drawn)
17 | 24 | CCc1ccc(/C=C2\SC(N[C@H](Cc3nn[nH]n3)c3ccccc3)=NC2=O)o1 (stereo in doubt)
18 | 25 | CCc1ccc(/C=C2\SC(N[C@H](C(=O)O)C3CCCCC3)=NC2=O)o1 (stereo in doubt)
19 | 59 | CCc1ccc(/C=C2\SC(N[C@H](CC(=O)O)c3ccccc3)=NC2=O)o1 (stereo in doubt)
20 | 16.5 | CCc1ccc(/C=C2\SC(N[C@H](CC(=O)O)c3ccc(Br)cc3)=NC2=O)o1 (stereo in doubt)
21 | 19 | CCc1ccc(/C=C2\SC(NC(c3ccccc3)c3nn[nH]n3)=NC2=O)o1 (stereo not drawn)
22 | 16 | CCc1ccc(/C=C2\SC(N[C@H](C(N)=O)c3ccc(F)cc3)=NC2=O)o1 (stereo in doubt)
23 | 24 | CCc1ccc(/C=C2\SC(NC(C(=O)O)c3ccc(F)c(Cl)c3)=NC2=O)o1 (stereo not drawn)
24 | > 100 | CCc1ccc(/C=C2\SC(N[C@H](CC(=O)O)c3ccc(C#N)cc3)=NC2=O)o1 (stereo in doubt)
25 | 14 | CCc1ccc(/C=C2\SC(NC(C(=O)O)c3ccc4ccccc4c3)=NC2=O)o1 (stereo not drawn)
26 | 14 | CCc1ccc(/C=C2\SC(NC(c3ccc(C)cc3)c3nn[nH]n3)=NC2=O)o1 (stereo not drawn)
27 | 44 | CCc1ccc(/C=C2\SC(N[C@H](CC(=O)O)c3ccc(F)cc3)=NC2=O)o1 (stereo in doubt)
28 | > 100 | CCc1ccc(/C=C2\SC(N[C@H](CC(=O)O)c3cccnc3)=NC2=O)o1 (stereo in doubt)

— ChEMBL document CHEMBL1146262, “Novel thiazolones as HCV NS5B polymerase allosteric inhibitors: Further designs, SAR, and X-ray complex structure” (Bioorg Med Chem Lett, 2007)
